Laboratory results from patent US20100021420A1, “COMBINATIONS OF PYRAZOLE DERIVATIVES FOR THE INHIBITION OF CDKS AND GSK'S” (ASTEX THERAPEUTICS LIMITED, priority 2006, published 2010).
Values belong to the compound of their own block, whether it stands above or below them.

Legend:
[1] = Vapour sorption/desorption analysis; format: physicochemical
Protocol: Approximately 20 mg of sample was placed into a wire-mesh vapour sorption balance pan and loaded into an ‘IgaSorp’ vapour sorption balance (Hiden Analytical Instruments) held at 25+/−0.1° C. The sample was then dried by maintaining a 0% humidity environment (using mass flow control apparatus) until no further weight change was recorded. Subsequently, the sample was then subjected to a ramping profile from 0-90% relative humidity (% RH) at 10% RH increments, maintaining the sample at each step until equilibration had been attained (99.5% step completion).
Upon reaching equilibration, the % RH within the apparatus was ramped to the next step and the equilibration procedure repeated. After completion of the sorption cycle, the sample was then dried using the same procedure. The weight change during the sorption/desorption cycles was then monitored, allowing for the hygroscopic nature of the sample to be determined.

[2] = Thermogravimetric analysis; format: physicochemical
Protocol: Approximately 5 mg of sample (accurately weighed) was placed into a platinum TGA pan and loaded into a TGA 7 gravimetric analyser. The sample under study was then heated at a rate of 10° C./min (from ambient to 300° C.) and the resulting change in weight monitored. A dry nitrogen purge gas at a flow rate of 20 ml/min was used to produce an inert atmosphere and prevent oxidation of the sample during heating. Prior to analysis the instrument was weight calibrated using a 100 mg reference standard and temperature calibrated using an Alumel reference standard (using the Curie point transition temperature).

[3] = antitumour agent; cited from earlier work
[4] = tested on: P-glycoprotein-overexpressing subline of leukemic cell line CCRF-CEM; details: cited from earlier work
[5] = mice; doses 10 times more than were needed for antitumour activity; cited from earlier work
CLL = details: initial therapy, symptomatic CLL patients, cited from earlier work
[6] = tested on: Acute Promyelocytic Leukemia (APL); details: cited from earlier work
PKC = details: cited from earlier work
OVCAR-3 tumour cells = details: in which PKB is amplified, concentrations of 50 and 100 microM; cited from earlier work
[7] = tested on: human colon carcinoma cell line HCT 116; experiment: Anti-proliferative activity, HCT-116 cell line; format: cell-based; details: HCT 116 (ECACC No. 91091005)
Excerpt: See Example 15 of WO 2006/077426 at pages 100-101 (which is incorporated herein by reference).

A2780 cells = experiment: IC50 shift assay (combination), A2780 cells; format: cell-based
HCT116 cell line = experiment: IC50 shift assay (combination), HCT116 cells; format: cell-based
SkBR3 cell line = experiment: IC50 shift assay (combination), SkBR3 cells; format: cell-based
[8] = tested on: Human colon carcinoma cell line HT29; experiment: IC50 shift assay (combination), HT29 cells; format: cell-based; details: concurrent 72 hours, camptothecin 24 hours then Compound I 48 hours, or Compound I prior to camptothecin
Protocol: Human colon carcinoma cell line HT29 (ECACC No. 91072201) cells were seeded onto 96-well tissue culture plates at a concentration of 5×10^3 cells/well. Cells were allowed to recover overnight prior to addition of compound(s) or vehicle control (0.2% DMSO) as follows;
Compounds were added according to one of the following schedules; • a) Concurrent for 72 hours. • b) Compound I for 24 hours followed by camptothecin for 48 hours. • c) Camptothecin for 24 hours followed by Compound I for 48 hours.
Following a total of 72 hours compound incubation, Alamar Blue™ was added to a final concentration of 10% (v/v) and incubated at 37° C. for 6 hours. Fluorescent product was quantified by reading at d535/25× (excitation) and d590/20 m (emission) on a Fusion Reader (Perkin Elmer). The IC50 for camptothecin in the presence of varying doses of Compound I was determined.

weight loss during initial drying ([1]; 0% RH, 25 °C): approximately 0.01%
total weight increase ([1]; upon equilibration at 90% RH, 25 °C): 0.24%
significant event (thermally induced partial degradation) in TGA plot ([2]; onset prior to the main melt transition): about 288 °C
mass loss (TGA) ([2]; up to 150° C., crystals from Example 5 Step 8): approximately 0.2%
SMILES: CS(=O)(=O)N1CCC(NC(=O)c2n[nH]cc2NC(=O)c2c(Cl)cccc2Cl)CC1 [Set B Example 1, 4-(2,6-dichloro-benzoylamino)-1H-pyrazole-3-carboxylic acid (1-methanesulphonyl-piperidin-4-yl)-amide]
hygroscopicity / hydrate formation ([1]; storage in elevated humidity conditions): physically stable with regard to hygroscopicity

SMILES: CCN[C@H]1CO[C@@H](O[C@H]2[C@H](O[C@H]3C#C/C=C\C#C[C@]4(O)CC(=O)C(NC(=O)OC)=C3/C4=C\CSSSC)O[C@H](C)[C@@H](NO[C@H]3C[C@H](O)[C@H](SC(=O)c4c(C)c(I)c(O[C@@H]5O[C@@H](C)[C@H](O)[C@@H](OC)[C@H]5O)c(OC)c4OC)[C@@H](C)O3)[C@@H]2O)C[C@@H]1OC [Calicheamicin]
potency relative to adriamycin [3]: over 1,000 times

SMILES: C/C1=C/C[C@@H](/C(C)=C/c2csc(C)n2)OC(=O)C[C@H](O)C(C)(C)C(=O)[C@H](C)[C@@H](O)[C@@H](C)CCC1 [desoxyepothilone B]
IC50 [4]: 0.017 µM

SMILES: CCOC(=O)c1ccc2[nH]c3c(OC)c4[nH]c5ccc(C(=O)OCC)cc5c4cc3c2c1 [SR-13668]
adverse effects [5]: no adverse effects

SMILES: Nc1nc(F)nc2c1ncn2[C@@H]1O[C@H](CO)[C@@H](O)[C@@H]1O [fludarabine, 9-β-D-arabinofuranosyl-2-fluoro-adenine]
rate of complete responses (CLL; v 3% with alkylator-based therapies): 27%
duration of progression-free survival (CLL; v 17 months with alkylator-based therapies): 33 months

SMILES: CC1=C(/C=C/C(C)=C/C=C/C(C)=C/C(=O)O)C(C)(C)CCC1 [Tretinoin]
remissions in APL patients [6]: 64-100%

SMILES: O=S(=O)(NCCNCC=C(c1ccccc1)c1ccccc1)c1cccc2cnccc12 [NL-71-101]
IC50 (PKC): 104 µM
apoptosis (OVCAR-3 tumour cells): induced apoptosis

IC50 [7]: < 20 µM
SMILES: O=C(NC1CCNCC1)c1n[nH]cc1NC(=O)c1c(Cl)cccc1Cl [Example 1]

effect of combination with Paclitaxel in IC50 shift assay (A2780 cells; Paclitaxel 24 h followed by Compound I 48 h): synergy
effect of combination with 5-FU in IC50 shift assay (A2780 cells; added concurrently for 72 h): mildly synergistic
effect of combination with Iressa in IC50 shift assay (A2780 cells; added concurrently for 72 h): synergistic
effect of combination with Paclitaxel in IC50 shift assay (A2780 cells; added concurrently for 72 h): Additive
effect of combination with Cisplatin in IC50 shift assay (A2780 cells; concurrently for 72 h or Cisplatin 24 h followed by compound I 48 h): additive
effect of combination with Etoposide in IC50 shift assay (A2780 cells; concurrently for 72 h or Etoposide 24 h followed by compound I 48 h): additive
effect of combination with Gemcitibine in IC50 shift assay (A2780 cells; concurrently for 72 h or Gemcitibine 24 h followed by Compound I 48 h): additive
effect of combination with Vinblastine in IC50 shift assay (A2780 cells; concurrently for 72 h or Vinblastine 24 h followed by compound I 48 h): additive
effect of combination with camptothecin in IC50 shift assay [8]: additive
SMILES: O=C(NC1CCNCC1)c1n[nH]cc1NC(=O)c1c(Cl)cccc1Cl [Compound I, 4-(2,6-dichloro-benzoylamino)-1H-pyrazole-3-carboxylic acid piperidin-4-ylamide]
effect of combination with Iressa (synergy) confirmed (HCT116 cell line): confirmed
effect of combination with Iressa (synergy) confirmed (SkBR3 cell line): confirmed
